Experimental data: paper PMC3745399, “An NO Donor Approach to Neuroprotective and Procognitive Estrogen Therapy Overcomes Loss of NO Synthase Function and Potentially Thrombotic Risk” (PLoS ONE, 2013)
Read-outs that look alike come from different tables or passages of the source.

Assays:
[1] = system: hippocampal slices from 16-month old male 3×Tg mice; test: LTP in CA1 of hippocampal slices after theta burst stimulation; parameters: species or system mouse; settings: 3×Tg slices; for enhancement of subsequent theta bursts during LTP induction: 100 nM; for end fEPSP: 100 nM added 30 min prior to TBS, untreated 3×Tg 97.0±6.4%, WT 134.7±10.3%
Description: LTP in the CA1 field of the hippocampus is a well-studied cellular model for learning and memory. […] At 16 months, an advanced age at which Alzheimer's-like neuropathology is well developed in these animals, studies on LTP have not previously been reported. Nevertheless, we observed a robust, reproducible deficit in LTP in these aged transgenic mice, with field excitatory post-synaptic potentials (fEPSP) showing an end fEPSP of 97.0±6.4% of baseline at 45 min post-TBS, compared to 134.7±10.3% observed in the wild type (WT) transgenic background controls (Fig. 3A,B).
Figure 3 Reversal of LTP deficit in aged 3×Tg mice by SERMs is GPR30 dependent. LTP was measured after TBS in the CA1 region of hippocampal sections from 16 month male 3×Tg mice or WT controls. Test compounds (SERMs 100 nM; G15 100 nM) were added 30 min prior to TBS. […] (C) Secondary analysis of theta bursts indicate action both during induction and stabilization of LTP, through a GPR30 dependent mechanism.
All experiments used 16-month old male 3×Tg transgenic or age-matched WT background controls. For electrophysiology, mice were rapidly decapitated, and brains were removed into an ice-cold aCSF solution (in mM: NaCl 124, KCl 3.0, KH2PO4 1.25, NaHCO3 25.7, D-glucose 10, L-ascorbate 2.0, MgSO4 2.5, and CaCl2 3.3) and sectioned on a tissue chopper into 400 µm sections. Slices were transported to a 37°C solution of aCSF, continuously bubbled with 95% O2/5% CO2, and allowed to recover at least 60 min before experimentation. After placement of a stimulation electrode in the Schaffer commissural fibers and recording electrodes with 2 M NaCl solution into the stratum radiatum of the CA1 area, stimulus intensity was set to evoke submaximal fEPSP and continuously monitored at 20 s intervals for at least 15 min to establish a stable baseline. SERMs (100 nM) and G15 (100 nM) were prepared fresh in perfusate and started at least 30 min before LTP induction to reach a new baseline after enhancement of basal synaptic transmission was observed. […] Resulting fEPSP was monitored at 20 s intervals for ∼60 min post TBS.

[2] = target: ERβ (Homo sapiens, UniProt Q92731); test: ER binding affinity by competitive E2 displacement (ERβ)
ERβ, sequence (Q92731 whole entry, species assumed): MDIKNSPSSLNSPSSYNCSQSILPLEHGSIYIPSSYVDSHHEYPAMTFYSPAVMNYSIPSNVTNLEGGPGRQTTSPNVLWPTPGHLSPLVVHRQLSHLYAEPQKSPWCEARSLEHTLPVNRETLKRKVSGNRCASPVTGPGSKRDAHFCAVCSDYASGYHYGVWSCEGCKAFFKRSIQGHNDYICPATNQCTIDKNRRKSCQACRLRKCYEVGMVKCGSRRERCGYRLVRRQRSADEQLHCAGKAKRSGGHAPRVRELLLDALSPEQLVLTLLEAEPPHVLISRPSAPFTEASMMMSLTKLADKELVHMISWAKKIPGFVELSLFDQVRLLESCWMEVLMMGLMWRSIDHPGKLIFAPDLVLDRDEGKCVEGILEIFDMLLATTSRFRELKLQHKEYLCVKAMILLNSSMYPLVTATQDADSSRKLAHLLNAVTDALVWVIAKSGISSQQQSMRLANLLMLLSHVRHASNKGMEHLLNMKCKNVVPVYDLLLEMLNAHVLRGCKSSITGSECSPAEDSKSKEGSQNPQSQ
Description: Raloxifene and DMA are structurally related SERMs acting as antagonists of estrogen action in mammary and endometrial cells. […] ER binding affinity was measured by competitive E2 displacement as previously described.

[3] = Anticoagulation: PT and aPTT after i.p. dosing; assay type: in vivo, mouse; settings: for PT / aPTT / anticoagulant effect (PT, aPTT) at 3 h: C57Bl/6 mice, 2 mg/kg i.p.; for PT / aPTT: 1 h; for anticoagulation (PT and aPTT) with NOS blockade: L-NAME 50 mg/kg 30 min prior to collection, SERM 2 mg/kg 1 h prior
Description: Figure 6 Effect of SERMs and NO-SERM on […] clotting cascades. Blood was collected by cardiac puncture and PTT and aPTT were determined 1 or 3 h after i.p. drug administration (2 mg/kg).
SERMs were injected (i.p.) into 6–8 month old male C57Bl/6 mice 1 h before blood collection, and L-NAME was injected (i.p.) 30 min before blood collection. The mouse was sedated by exposing it to CO2 until unconscious and blood was collected in 4.5 mL BD Vacutainer Glass Evacuated Blood Collection Tubes (with 0.105 M buffered sodium citrate) by cardiac puncture. The blood samples were centrifuged at 300 g for 30 min to separate the plasma from the blood, and then 200 uL of plasma was taken from each sample and the PT and aPTT were measured using an ACL 7000 Coagulation Analyzer. The analyzer injects […] of PT-fibrinogen (lyophilized rabbit brain calcium thromboplastin with stabilizers, polybrene, buffer and preservatives) to 75 µL of plasma sample to measure the PT, and 75 µL of synthAFAX (0.025 M)+100 µL of CaCl2 (0.02 M) were added to 75 µL of plasma to measure aPTT. The analysis was at 37°C using a photo sensor at λ = 671 nm.

[4] = system: isolated rings of aortae; test: Aortic ring relaxation; parameters: species or system rat
Description: Isolated rings of aortae from male Sprague-Dawley rats (250–300 g) were prepared for isometric tension measurements and were equilibrated for 1 h at an optimal resting tension of 10 mN. Tissues were contracted submaximally with 0.3 µM phenylepinephrine, and after 10–15 m cumulative concentration-response curves for SERMs (0.01–30 µM) were obtained. Some aortic ring preparations were denuded of the endothelium, or were treated with 100 µM L-NAME, prior to assessment of SERM-induced relaxation responses.

[5] = system: primary cortical neurons exposed to OGD; test: Neuroprotection in oxygen glucose deprivation (OGD), MTT; assay type: cell-based, rat; settings: for neuroprotection with G15: 100 nM SERM + G15 100 nM (GPR30 antagonist); for neuroprotection with L-NAME: 100 nM SERM + L-NAME 100 µM (NOS antagonist), whether it attenuated neuroprotective activity; for neuroprotection with LY294002: 100 nM SERM + LY294002 10 µM (PI3K inhibitor); for neuroprotection with pertussis toxin: 100 nM SERM + pertussis toxin 100 ng/mL; for neuroprotection (cell survival by MTT): 100 nM, 2 h OGD, 24 h, no blocker, normalized to E2 10 nM (100%) and vehicle (0%)
Description: Primary neuronal cultures were subjected to 2 h OGD with compounds added at the start of OGD and inhibitors added 45 min prior to OGD. Cell survival was measured at 24 h.
Primary cultures of dissociated cortical neurons were prepared as follows; briefly, cortices were dissected from E16-18 Sprague-Dawley rats (Charles River). After removal of meninges, cortices were manually dissociated and plated at a density of 10^6 cells/mL into 96-well plates. Twenty-four hours after plating, cultures were grown in Neurobasal A media supplemented with B27, glutamine and pen/strep, with media changes every 3–4 days. In accordance with published protocols, measured levels of glia in culture after DIV2 are <0.5%. Experiments were performed at DIV 11–12.
The cell media was changed to phenol red-free growing media at least 3 h before OGD. Receptor blockers were added 45 min prior to the start of OGD, and SERMs were added at the start of OGD, with concentrations maintained through media changes. For OGD, the cells were transferred to a hypoxia chamber controlled at 5% CO2 and <1% O2, and growth media was replaced with a physiological salt solution (in mM: NaCl 116, CaCl2 1.8, MgSO4 0.8, KCl 5.4, NaHCO3 14.7, NaHPO4 1, HEPES 10, pH = 7.4). After 2 h OGD, cells were removed from the chamber and growth media was replaced. After 24 h, cell viability was measured by MTT assay using a Dynex MRX ll micro-plate spectrophotometer.

| Structure (SMILES) | enhancement of subsequent theta bursts during LTP induction [1] | end fEPSP [1] | IC50 [2] [µM] | PT [3] | aPTT [3] | anticoagulant effect (PT, aPTT) at 3 h [3] | anticoagulation (PT and aPTT) with NOS blockade [3] | efficacy (maximal relaxation) ([4]; intact aortic rings) [% relaxation] | neuroprotection with G15 [5] | neuroprotection with L-NAME [5] | neuroprotection with LY294002 [5] | neuroprotection with pertussis toxin [5] | neuroprotection (cell survival by MTT) [5] | other results |
| --- | --- | --- | --- | --- | --- | --- | --- | --- | --- | --- | --- | --- | --- | --- |
| Oc1ccc(-c2sc3cc(O)ccc3c2Oc2ccc(OCCN3CCCCC3)cc2)cc1 [DMA, desmethylarzoxifene] | augmented | 144.9±8.7 % of baseline | 0.0096 ± 0.0019 | showed a clear trend | significantly increased aPTT | decreased to that of control samples | did not persist in the presence of NOS blockade | ~100 | blocked the neuroprotective activity | did not | attenuated neuroprotective activity | blocked the neuroprotective activity | robust neuroprotection | end fEPSP with G15 ([1]; DMA 100 nM + G15 100 nM): 96.8±7.1%; effect on LTP with ODQ (sGC inhibitor) ([1]; ODQ 10 nM, variable interburst interval, preliminary): ODQ blocks effect of DMA on LTP; EC50 ([4]; intact aortic rings contracted with phenylepinephrine, mean, S.D., read-out: EC50 for relaxation): 3.5 ± 2.5 µM; efficacy after endothelium removal or NOS inhibition ([4]; physical removal of the endothelium or L-NAME): significant decrease in the efficacy |
| O=[N+]([O-])OCCCC1CCN(CCOc2ccc(Oc3c(-c4ccc(O)cc4)sc4cc(O)ccc34)cc2)CC1 [NO-DMA, 3-(1-(2-(4-(6-hydroxy-2-(4-ydroxyphenyl)benzo[b]thiophen-3-yloxy)phenoxy)ethyl)piperidin-4-yl)propyl nitrate] | augmented | 144.2±5.2 % of baseline | 0.0244 ± 0.0096 | significantly increased PT | significantly increased aPTT | remained significantly higher than control | significantly increased anticoagulation compared to control in both PT and aPTT | ~100 | blocked the neuroprotective activity | did not | attenuated neuroprotective activity | blocked the neuroprotective activity | robust neuroprotection identical to DMA | EC50 ([4]; endothelium-denuded tissues, read-out: EC50 for relaxation, endothelium-denuded): 0.9 ± 0.69 µM; potency relative to DMA ([4]; intact aortic rings): at least ten-fold increased potency; EC50 ([4]; intact aortic rings, read-out: EC50 for relaxation): 0.13 ± 0.09 µM; EC50 ([4]; tissues treated with L-NAME 100 µM, read-out: EC50 for relaxation, L-NAME): 1 ± 0.54 µM; neuroprotection with ICI 182780 ([5]; 100 nM SERM + ICI 182780 100 nM, added 45 min prior to OGD): did not block this effect |
